Earlier results in patent publication US7115628B2, “Bridged piperidine derivatives as melanocortin receptor agonists” (Merck & Co., Inc., priority 2001, dated 2006).

Legend:
[1] = system: patients with erectile dysfunction; details: for duration of effect / onset of action: after an oral dose; for share of men/patients in whom effective (adequate response): oral
[2] = system: males with psychogenic erectile dysfunction
[3] = subcutaneous injection formulation

| Compound | duration of effect [1] | onset of action [1] [min] | share of men/patients in whom effective (adequate response) [1] | absorption into the systemic circulation ([2]; in vivo, po) | response rate ([2]; injected intramuscularly or subcutaneously) [%] | duration of action [2, 3] | time to onset of erection [2, 3] [min] |
| --- | --- | --- | --- | --- | --- | --- | --- |
| Cc1ccc(N(CC2=NCCN2)c2cccc(O)c2)cc1 [phentolamine] | 2 h | 5 to 30 | 35–40% |  |  |  |  |
| CCCc1nn(C)c2c(=O)[nH]c(-c3cc(S(=O)(=O)N4CCN(C)CC4)ccc3OCC)nc12 [Sildenafil, sildenafil] | about 4 hours | 30 to 60 | about 70% |  |  |  |  |
| Ac-Nle-c[Asp-His-DPhe-Arg-Trp-Lys]-NH2 [MT-II] |  |  |  | not absorbed into the systemic circulation | 75 | approximately 2.5 hours | 10 to 20 |
